Source: publication PMC4325551, “Inhibition of Rat 5α-Reductase Activity and Testosterone-Induced Sebum Synthesis in Hamster Sebocytes by an Extract of Quercus acutissima Cortex” (Evidence-based Complementary and Alternative Medicine : eCAM, 2015)

Columns and labels:
[1] = molecular target: T1, rat liver microsomal 5α-reductase (Rattus norvegicus, UniProt P24008); test: 5α-reductase assay using rat liver microsomes (testosterone metabolism, HPLC and TLC); format: biochemical; details: for Inhibitory activity on 5α-reductase (% of control): mean ± SEM, N = 3
T1 construct: The reaction was started with the addition of liver microsomes (20 μg protein); from tissue; host or cells: liver microsomes of male Sprague–Dawley rats
T1 sequence (P24008 1-259): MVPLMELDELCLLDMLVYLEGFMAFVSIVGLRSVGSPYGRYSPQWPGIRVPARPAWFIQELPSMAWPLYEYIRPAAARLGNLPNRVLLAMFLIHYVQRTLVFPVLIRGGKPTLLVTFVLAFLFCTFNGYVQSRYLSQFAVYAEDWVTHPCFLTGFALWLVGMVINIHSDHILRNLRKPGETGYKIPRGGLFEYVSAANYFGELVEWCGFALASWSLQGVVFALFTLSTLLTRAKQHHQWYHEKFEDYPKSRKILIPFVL
Description: Rat liver microsomes were prepared by the method of Lee et al.. Male Sprague–Dawley rats (body weight, 300 to 320 g; Clea Japan, Tokyo, Japan) were fasted overnight to decrease the concentration of liver glycogen and then sacrificed. The liver was excised and washed in ice-cold homogenizing buffer containing 0.32 mol/L sucrose, 1 mmol/L dithiothreitol (Wako Pure Chemical Industries), and 20 mmol/L potassium phosphate, pH 6.5. The following procedures were all carried out at 4°C. The tissue was minced with a pair of scissors and then homogenized in homogenizing buffer using a Potter-Elvehjem grinder. The homogenate was then centrifuged at 10 000 g for 10 min. The resulting pellet was washed with two pellet volumes of homogenizing buffer and centrifuged again. The supernatants from the two centrifugations were combined and further centrifuged at 105 000 g for 1 h. The resulting pellet (microsomes) was suspended in homogenizing buffer and centrifuged again. The microsomes were resuspended in homogenizing buffer. The microsome suspension was divided into small aliquots and stored at −80°C. The microsomes were diluted with 40 mmol/L potassium phosphate, pH 6.5, immediately before use. Unlike human liver, rat liver microsomes have the 5α-R1 but not the 5α-R2 isoform.
Briefly, the reaction solution was preincubated with or without a test sample in 1 mmol/L dithiothreitol, 40 mmol/L potassium phosphate, pH 6.5, 100 μmol/L NADPH (Oriental Yeast, Tokyo, Japan), and 3.5 μmol/L testosterone (Wako Pure Chemical Industries) in a final volume of 0.5 mL for 20 min at room temperature. The reaction was started with the addition of liver microsomes (20 μg protein). After incubation at 37°C for 30 min, the reaction solution was extracted with 2 mL ethyl acetate. The ethyl acetate phase (upper phase) was transferred to a tube and evaporated using a centrifugal concentrator (Tomy Seiko, Tokyo, Japan). Testosterone and the metabolites were measured by two chromatography methods, HPLC (Shimadzu, Kyoto, Japan) and TLC.
The residue was dissolved in acetonitrile and analyzed using the HPLC system. The reverse-phase HPLC analysis was performed on a C18 column (3.0 × 150 mm, GL Science, Japan) at a column oven temperature of 50°C and UV detection of 240 nm. The isocratic mobile phase of acetonitrile/water (50 : 50, v/v) was flowed at 0.4 mL/min through the column.
To detect the steroids by TLC, the residue containing steroids was taken up in ethanol and chromatographed on a TLC plate (Silica gel 60 F254, Merck, Darmstadt, Germany), using ethyl acetate-hexane (1 : 1, v/v) as the developing solvent system at room temperature. Testosterone, (Tokyo Chemical Industry Co., Tokyo, Japan) and 5α-androstane-3α,17β-diol (Sigma-Aldrich) were applied to TLC as androgen standards. The plate was exposed to 10% sulfuric acid using an atomizer and then heated on a hot plate. The fluorescent signals were visualized by irradiation of UV light at 302 nm using a ChemiDoc XRS Plus (BIO-RAD, Hercules, CA).

[2] = test system: primary hamster sebocytes (Ha-SE); test: testosterone-induced sebum synthesis (lipogenesis) assay in hamster sebocytes; format: cell-based; details: 10 and 30 μmol/L; 10 μmol/L testosterone; 8 days
Description: (§1) Primary hamster sebocytes (Ha-SE) were purchased from Kurabo Industries (Osaka, Japan) and maintained in a culture medium containing […] epidermal growth factor (EGF), 2% (v/v) human serum (HS), 8% (v/v) heat-inactivated fetal bovine serum (FBS) (Kurabo Industries), and a cocktail of penicillin G and streptomycin (Sigma-Aldrich). All assays using Ha-SE cells were performed between the 5th and 6th passage. For the study dealing with sebum synthesis, a sebum detecting kit (Kurabo industries) was used. […] The amount of sebum synthesized was evaluated by measuring lipid production and cell growth according to the manufacturer's instructions. That is, the lipid in sebaceous cells was stained with Oil Red O, extracted in 100% isopropanol, and quantified by a spectrometer at 520 nm. The cell growth was measured using XTT reagent (Biological Industries, Beit Haemek, Israel). The lipogenesis was calculated following the formula as relative sebum synthesis per cell number: lipogenesis = A/B, where A = OD 520 nm of 200 μL extract solution of 300 μL 100% isopropanol for extract of Oil red O dye and B = OD 465/630 nm of 200 μL of 450 μL culture fluids containing XTT reagent following incubation for 30 min. […]

[3] = test system: primary hamster sebocytes (Ha-SE); test: insulin-induced sebum synthesis (lipogenesis) assay in hamster sebocytes; format: cell-based; details: 10 and 30 μmol/L; 10 μg/mL insulin; 8 days
Description: as §1

[4] = test system: primary hamster sebocytes (Ha-SE); test: cell cytotoxicity (XTT) in undifferentiated hamster sebocytes; details: 24 h with BK (10, 30 μg/mL) or pentagalloyl glucose (10, 30 μmol/L) in the presence of EGF
Description: Four Figures and Two Tables
Hamster-derived sebaceous gland cells (Ha-SE) were precultured until confluent in the presence of 10 ng/mL epidermal growth factor (EGF), and further cultured with 10, 30 […]
vehicle in the presence of EGF. Twenty four hours later, cell cytotoxicity was measured […]
Fig. S2. Bioconversion of exogenous dihydrotestosterone to 5α-androstane-3,17-diol by rat liver microsomal enzymes […]
min in the presence or absence of rat liver microsomes (40 μg/mL) and the co-factors.
The metabolites were extracted with ethyl acetate after incubation, and analyzed by TLC. All androgen standards were applied at 0.1 μg/μL/spot. T.: testosterone, DHT: dihydrotestosterone, A.diol: 5α-androstane-3α,17β-diol

[5] = test system: human intestinal epithelial Caco-2 cells; parameters: method as in PMID 16890919, PMID 16580640; details: transport inhibited by phlorizin (SGLT-1 inhibitor); ref [34], [35]; cited from earlier work

inhibition of 5α-reductase activity ([1]; at 10 and 100 μmol/L): more than 50% | Inhibitory activity on 5α-reductase (% of control) ([1]; test sample 0.1 μmol/L, testosterone 3.5 μmol/L, 30 min, rat liver microsomes 40 μg/mL, HPLC): 5.4 ± 1.3 % of control | Inhibitory activity on 5α-reductase (% of control) ([1]; test sample 1 μmol/L, testosterone 3.5 μmol/L, 30 min, rat liver microsomes 40 μg/mL, HPLC): 36.1 ± 6.5 % of control | Inhibitory activity on 5α-reductase (% of control) ([1]; test sample 10 μmol/L, testosterone 3.5 μmol/L, 30 min, rat liver microsomes 40 μg/mL, HPLC): 83.5 ± 1.3 % of control | Inhibitory activity on 5α-reductase (% of control) ([1]; test sample 100 μmol/L, testosterone 3.5 μmol/L, 30 min, rat liver microsomes 40 μg/mL, HPLC): 107.9 ± 2.2 % of control | IC50 ([1]; testosterone 3.5 μmol/L, 30 min, rat liver microsomes 40 μg/mL, HPLC): 2.5 µM
SMILES: O=C(OC[C@H]1O[C@@H](OC(=O)c2cc(O)c(O)c(O)c2)[C@H](OC(=O)c2cc(O)c(O)c(O)c2)[C@@H](OC(=O)c2cc(O)c(O)c(O)c2)[C@@H]1OC(=O)c1cc(O)c(O)c(O)c1)c1cc(O)c(O)c(O)c1 [Pentagalloyl glucose, 1,2,3,4,6-penta-O-galloyl glucose]
testosterone-induced lipogenesis [2]: significantly downregulated | insulin-induced lipogenesis [3]: significantly downregulated | cell metabolic activities [4]: not changed compared with the vehicle control | transport across Caco-2 monolayer [5]: crosses a monolayer
